Experimental data taken from patent US20030232765A1, “Aryl urea compounds in combination with other cytostatic or cytotoxic agents for treating human cancers” (BAYER CORPORATION, priority 2001, published 2003).
Structures can show the parent of a compound that is named as a salt. Where two headings read alike, the source gives them in different places.

How the values were obtained:
[1] = Camptosar 40 mg/kg/dose i.p. q4d×3, Compound A 80 mg/kg/dose p.o. qd×9
From the text: (§1) Ncr nu/nu female mice (Taconic Farms, Germantown, N.Y.) were used for all in vivo studies invovling the DLD-1 and NCI-H460 tumor models. Female CB-17 SCID nice (Taconic Farms, Germantown, N.Y.) were used for studies involving the Mia-PaCa-2 tumor model. The mice were housed and maintained within the Comparative Medicine Department at Bayer Corporation, West Haven, Conn. in accordance with Bayer IACUC, State, and Federal guidelines for the humane treatment and care of laboratory animals. Mice received food and water ad libitum.
(§2) These schedules are termed ‘Concurrent Therapy’.
In the first study, Camptosar® was administered i.p at 40 mg/kg/dose.

[2] = system: DLD-1 human colon tumor xenografts; test: Tumor xenograft experiment, established s.c. DLD-1 tumors, anti-tumor efficacy (Example 1); format: in vivo; details: Camptosar 40 mg/kg/dose i.p. q4d×3, Compound A 80 mg/kg/dose p.o. qd×9
From the text: (§3) Mice received food and water ad libitum.
as §2

[3] = Iressa 150 mg/kg/dose p.o. qd×9; Compound A 80 mg/kg/dose p.o. qd×9; alone or combined; 10 mice per group
From the text: as §2

[4] = system: A549 human non-small cell lung tumor xenografts; test: Tumor xenograft experiment, established A549 tumors, anti-tumor efficacy (Example 5); format: in vivo; details: Iressa 150 mg/kg/dose p.o. qd×9, Compound A 80 mg/kg/dose p.o. qd×9; for percent tumor growth suppression (% TGS): alone or combined, endpoint time to one mass doubling
Experimental: (§4) The NCI-H460 cells were maintained and passaged in vitro using DMEM (GIBCO cat. # 11995-065: 500 mls) supplemented with 10% heat inactivated fetal bovine serum (JRH Biosciences cat.# 12106-500M), 2 mM L-glutamine (GIBCO cat. # 25030-81), 10 mM HEPES buffer (GIBCO cat # 15630-080) and penicillin-streptomycin (GIBCO cat. # 15140-122: 5 mls/[…]). The A549 cells were maintained and passaged using RPMI 1640 media (GIBCO cat.# 11875-085: 1000 ml) supplemented with 10% heat-inactivated fetal bovine serum (JRH Biosciences cat.# 12106-500M). All cells were maintained at 37° C. and 5% CO2 in a Fisher Scientific 610 CO2 incubator.
as §2

[5] = system: MX-1 mammary tumor xenografts; test: Tumor xenograft experiment, established MX-1 tumors, anti-tumor efficacy (Example 4); details: DOX 4 mg/kg/dose i.v. q4d×3; Compound A 40 mg/kg/dose p.o. qd×9; alone or combined; endpoint time to four mass doublings
From the text: The DLD-1 human colon carcinoma and the MiaPaCa-2 human pancreatic carcinoma were obtained from the American Type Tissue Culture Collection Repository. The MX-1 human mammary tumor was obtained from the NCI tumor repository. Tumors were maintained as a serial in vivo passage of s.c. fragments (3×3 mm) implanted in the flank using a 12 gauge trocar. A new generation of the passage was initiated every three or four weeks.
Female mice were implanted s.c. with DLD-1, MX-1 or Mia-PaCa-2 tumor fragments from an in vivo passage. […] The general health of mice was monitored and mortality was recorded daily. Tumor dimensions and body weights were recorded twice a week starting with the first day of treatment. […]
Tumor weights were calculated using the equation (l×w^2)/2, where l and w refer to the larger and smaller dimensions collected at each measurement. […] Anti-tumor efficacy was measured as the incidence of complete regressions (CR) defined as tumors that are reduced to below the limit of measurement (3 mm) in both length and width, partial regressions (PR) defined as tumors that are reduced by more than 50% but less than 100% of their initial size, and percent tumor growth suppression (% TGS). […]

[6] = Tolerability (body weight, mortality) in MiaPaCa-2 tumor-bearing mice (Example 2); format: in vivo; details: Gemzar 120 mg/kg/dose i.p. q4d×3; Compound A p.o. qd×9 (40 mg/kg/dose, 80 mg/kg dose level); alone or concurrent
From the text: as §3, §2

[7] = system: MiaPaCa-2 human pancreatic tumor xenografts; test: Tumor xenograft experiment, established s.c. MiaPaCa-2 tumors, anti-tumor efficacy (Example 2); format: in vivo; details: Gemzar 120 mg/kg/dose i.p. q4d×3
From the text: as §3, §2

[8] = system: NCI-H460 human non-small cell lung tumor xenografts; test: Tumor xenograft experiment, established s.c. NCI-H460 tumors, anti-tumor efficacy (Example 3); format: in vivo; details: Ncr nu/nu mice; Navelbine 6.7 mg/kg/dose i.v. q4d×3; Compound A 40 mg/kg/dose p.o. qd×9; alone or combined; endpoint time to three mass doublings
From the text: as §1, §4, §2

in vivo = details: female, Ncr nu/nu, mouse, iv, 6.7 mg/kg/dose
From the text: as §1, §2

Structure (SMILES)	lethality ([1]; alone or concurrent)	lethality [3]	incidence of partial regressions (PR) ([4]; 10 mice per group)	percent tumor growth suppression (% TGS) [4] [%]	percent tumor growth suppression (% TGS) [5] [%]	lethality [6]	other results
CCc1c2c(nc3ccc(OC(=O)N4CCC(N5CCCCC5)CC4)cc13)-c1cc3c(c(=O)n1C2)COC(=O)[C@]3(O)CC [Camptosar, Irinotecan]	no lethality						weight loss ([1]; alone or concurrent): minimal weight loss; tolerability ([1]; single agents): well tolerated; incidence of complete regressions (CR) ([2]; 10 mice per group): no complete or partial tumor regressions; incidence of partial regressions (PR) ([2]; 10 mice per group): no complete or partial tumor regressions; percent tumor growth suppression (% TGS) ([2]; Ncr nu/nu mice, alone or concurrent, endpoint time to three mass doublings): 71%
CNC(=O)c1cc(Oc2ccc(NC(=O)Nc3ccc(Cl)c(C(F)(F)F)c3)cc2)ccn1 [Compound A, N-(4-chloro-3-(trifluoromethyl)phenyl)-N′-(4-(2-(N-methylcarbamoyl)-4-pyridyloxy)phenyl)urea]	no lethality	no weight loss or lethality	2	218	46	no lethality	incidence of complete regressions (CR) ([4]; 10 mice per group): 1
COc1cccc2c1C(=O)c1c(O)c3c(c(O)c1C2=O)C[C@@](O)(C(=O)CO)C[C@@H]3O[C@H]1C[C@H](N)[C@H](O)[C@H](C)O1 [DOX, Doxorubicin HCl]					43		
Nc1ccn([C@@H]2O[C@H](CO)[C@@H](O)C2(F)F)c(=O)n1 [Gemzar, Gemcitabine HCI]						no lethality	percent tumor growth suppression (% TGS) ([7]; CB-17 SCID mice, Compound A 40 mg/kg/dose p.o. qd×9, alone or concurrent, endpoint time to two mass doublings): 154%; incidence of complete regressions (CR) ([7]; 10 mice per group): no complete or partial tumor regressions; incidence of partial regressions (PR) ([7]; Compound A 40 mg/kg/dose p.o. qd×9, 10 mice per group): no complete or partial tumor regressions
COc1cc2ncnc(Nc3ccc(F)c(Cl)c3)c2cc1OCCCN1CCOCC1 [Iressa, 4-(3-chloro-4-fluoroanilino)7-methoxy-6-(3-morpholinopropoxy)quinazoline]		no lethality	1	101			
CCC1=C[C@@H]2CN(C1)Cc1c([nH]c3ccccc13)[C@@](C(=O)OC)(c1cc3c(cc1OC)N(C)[C@H]1[C@@](O)(C(=O)OC)[C@H](OC(C)=O)[C@]4(CC)C=CCN5CC[C@]31[C@@H]54)C2 [Navelbine, 3′,4′-didehydro-4′deoxy-C-norvincaleukoblastine [R—(R,R)-2,3-dihydroxybutanedioate (1:2)(salt)]]							percent tumor growth suppression (% TGS) [8]: 32%; MTD at 9 days (in vivo): ~6.7 mg/kg
